Results published in publication PMC3923778 (PLoS Currents, 2014).

Tests used:
PDE2 = system: PDE2; design: method as in PMID 9216839, PMID 17697115, PMID 10618442, PMID 8961086, PMID 7581878; conditions: ref [12], [23], [25], [27], [28], read-out: previously reported potencies; cited from earlier work
PDE2A = molecular target: T1, PDE2A (Homo sapiens, UniProt O00408); experiment: Cerep diversity panel screen at 10 µM; assay type: biochemical
T1 construct: Cerep (contract laboratory)
Procedure: (§1) Studies were conducted at Cerep (France)

PDE1B = molecular target: T2, PDE1B (Homo sapiens, UniProt Q01064); experiment: Cerep diversity panel screen at 10 µM; assay type: biochemical
T2 construct: Cerep (contract laboratory)
Procedure: as §1

aggregated HTT = experiment: Seprion ligand based ELISA of aggregate load; assay type: in vivo, mouse; conditions: chronic administration; 13 weeks of age; lower dose group study
Text: Aggregates were captured in Seprion ligand coated plates (Microsens) and detected using the S830 sheep polyclonal or MW8 mouse monoclonal antibodies as described.

R6/2 mice = experiment: Cued Two-Choice Swim Test; assay type: in vivo, mouse; conditions: for Cued 2-CST Reversal, Correct Choice: p vs Vehicle-treated R6/2 mice / Cued 2-CST Acquisition, % of Mice Reaching Criterion: p vs Vehicle-treated R6/2 mice: BID; for Cued 2-CST Reversal, Correct Choice: p vs Vehicle-treated R6/2 mice: ANOVA; for Cued 2-CST Acquisition, % of Mice Reaching Criterion: p vs Vehicle-treated R6/2 mice: at 9 Weeks, Fisher's exact test
Procedure: The cued two-choice swim test was performed at 9 weeks of age. Testing was conducted under low light, white light conditions. The mice were taught to swim to (acquisition), or away from (reversal), a light positioned over the escape platform. Animals were placed within a rectangular tank (76 cm x 30 cm x 30 cm) filled with water maintained at 25°C ± 1°C. The water was rendered opaque by the addition of non-toxic white paint. The escape platform was located 0.5 cm below the surface of the water at one end of the tank. A light source with a 25W bulb (white light), oriented toward the water, was clipped to one side of the tank above the escape platform (7 cm in diameter with the borders slanted and roughened to help the rodents climb to it). Under these conditions, the light intensity is measured as 200 lux on the illuminated side of the tank, and 3 lux on the dark side of the tank. The platform was located on the lit side of the arena across acquisition trials, although the location of the lit side within the room relative to the mouse’s entry point was varied. The location of the bulb and platform was different on different trials for the same mouse. On each trial, mice were placed into the middle of the tank and allowed to swim for up to 60 sec, or until they found the platform. […] During all acquisition days, mice were given 8 trials per day (4 blocks of 2 trials, separated by an interblock interval of 20-30 minutes). Training continued in this way until each mouse performed at 75% correct choices for 2 consecutive days; upon reaching this criterion for successful acquisition of the task, mice were placed into the reversal phase on an individual basis. During reversal training, (4 blocks of 2 trials per day), the platform was placed on the dark side of the tank. On each trial during testing days, the latency to reach the platform was recorded (60 seconds if the platform was not reached) and the trial was scored as either “correct”, “incorrect” or “no choice”. The maximum number of days of acquisition was 12 days. All mice went from acquisition into the reversal phase and the experiment was stopped when 2 consecutive days of 75% criterion was reached or after a maximum of 7 days of reversal testing. A correct choice was scored if the animal turned in the direction of the platform and successfully mounted the platform. An incorrect choice was scored if the animal swam in the direction opposite the platform. […] To make a choice, a mouse had to swim within 20 cm of either end of the tank.
All values are presented as mean ± Standard Error of Mean (SEM), and differences are considered to be statistically significant at the p < 0.05 level. Statistical analysis was performed using StatsDirect statistical software. Differences between group means were analyzed by 1-way-ANOVA followed by Dunnett’s test (comparison to the control (=vehicle treated TG mice) group). The acquisition of the Cued two-choice swim test was analyzed using Fisher’s exact test.

PDE5 = system: PDE5; design: method as in PMID 9216839, PMID 17697115, PMID 8961086, PMID 7581878; conditions: [12] uses full length PDE5 derived from bovine lung, ref [12], [23], [27], [28], read-out: reported IC50; cited from earlier work

T2 sequence (Q01064 whole entry, species assumed): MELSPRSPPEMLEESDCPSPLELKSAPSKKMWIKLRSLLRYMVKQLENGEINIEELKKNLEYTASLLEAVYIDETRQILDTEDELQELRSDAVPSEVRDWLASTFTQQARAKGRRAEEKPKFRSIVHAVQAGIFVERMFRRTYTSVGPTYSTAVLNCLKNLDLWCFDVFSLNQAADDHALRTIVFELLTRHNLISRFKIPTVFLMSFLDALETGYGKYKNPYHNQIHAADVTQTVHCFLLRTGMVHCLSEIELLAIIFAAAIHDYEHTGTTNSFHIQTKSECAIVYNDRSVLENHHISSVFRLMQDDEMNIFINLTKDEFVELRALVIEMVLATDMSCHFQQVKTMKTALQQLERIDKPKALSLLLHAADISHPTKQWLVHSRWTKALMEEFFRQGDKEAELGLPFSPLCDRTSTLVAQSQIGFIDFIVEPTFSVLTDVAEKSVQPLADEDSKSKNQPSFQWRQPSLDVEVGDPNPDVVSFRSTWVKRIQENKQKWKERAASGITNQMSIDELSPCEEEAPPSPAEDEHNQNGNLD
T1 sequence (O00408 whole entry, species assumed): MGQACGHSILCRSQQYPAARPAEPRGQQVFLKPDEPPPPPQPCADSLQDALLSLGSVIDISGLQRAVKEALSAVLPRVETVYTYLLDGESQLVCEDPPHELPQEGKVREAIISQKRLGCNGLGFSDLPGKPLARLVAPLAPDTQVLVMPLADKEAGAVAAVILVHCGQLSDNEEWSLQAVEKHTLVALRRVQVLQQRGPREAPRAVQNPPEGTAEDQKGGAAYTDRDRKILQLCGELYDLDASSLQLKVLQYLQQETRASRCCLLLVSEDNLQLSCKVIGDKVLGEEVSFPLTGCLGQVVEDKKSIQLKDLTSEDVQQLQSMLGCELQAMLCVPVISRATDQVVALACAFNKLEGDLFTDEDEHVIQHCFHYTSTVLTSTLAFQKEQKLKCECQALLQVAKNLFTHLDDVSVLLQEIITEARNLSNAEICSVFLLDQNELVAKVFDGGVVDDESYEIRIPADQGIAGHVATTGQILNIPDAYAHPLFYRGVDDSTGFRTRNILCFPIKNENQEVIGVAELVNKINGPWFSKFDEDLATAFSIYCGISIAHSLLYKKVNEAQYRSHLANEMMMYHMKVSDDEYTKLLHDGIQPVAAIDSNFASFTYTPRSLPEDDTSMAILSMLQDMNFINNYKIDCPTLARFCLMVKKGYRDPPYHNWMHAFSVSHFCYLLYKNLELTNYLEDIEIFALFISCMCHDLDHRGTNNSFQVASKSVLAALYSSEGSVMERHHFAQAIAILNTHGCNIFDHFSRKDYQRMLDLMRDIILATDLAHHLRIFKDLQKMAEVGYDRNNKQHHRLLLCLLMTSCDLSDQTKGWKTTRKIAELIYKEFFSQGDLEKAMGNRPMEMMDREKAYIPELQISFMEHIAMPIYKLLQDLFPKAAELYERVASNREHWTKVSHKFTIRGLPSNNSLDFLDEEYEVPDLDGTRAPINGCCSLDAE

CN1C(=O)c2nc(Cc3ccc(C(F)(F)F)cc3)[nH]c2N2C1=N[C@H]1CCC[C@H]12 [SCH-51866, (+)-cis-5,6a,7,8,9,9a-hexahydro-2-[4-[trifluro-methyl]phenylmethyl]-5-methyl-cylopent[4,5]imidazo [2,1-b]purin-4(3H)one]
IC50 (PDE2): 2000 nM
inhibition at 10 µM (PDE2A): 92%
inhibition at 10 µM (PDE1B): 100%
aggregate load in the cortex and hippocampus (Seprion ligand ELISA) (aggregated HTT): no effect
Cued Two-Choice Swim Test: learning phase, reversal learning, latency to make the choice, effect in words (R6/2 mice; R6/2 mice, 9 weeks of age): did not improve any of these parameters
Cued 2-CST Reversal, Correct Choice: p vs Vehicle-treated R6/2 mice (R6/2 mice; Test Day 1, 10 mg/kg p.o.): ANOVA: p=0.117
Cued 2-CST Reversal, Correct Choice: p vs Vehicle-treated R6/2 mice (R6/2 mice; Test Day 1, 30 mg/kg p.o.): ANOVA: p=0.117
Cued 2-CST Reversal, Correct Choice: p vs Vehicle-treated R6/2 mice (R6/2 mice; Test Day 2, 10 mg/kg p.o.): ANOVA: p=0.311
Cued 2-CST Reversal, Correct Choice: p vs Vehicle-treated R6/2 mice (R6/2 mice; Test Day 2, 30 mg/kg p.o.): ANOVA: p=0.311
Cued 2-CST Reversal, Correct Choice: p vs Vehicle-treated R6/2 mice (R6/2 mice; Test Day 3, 10 mg/kg p.o.): ANOVA: p=0.573
Cued 2-CST Reversal, Correct Choice: p vs Vehicle-treated R6/2 mice (R6/2 mice; Test Day 3, 30 mg/kg p.o.): ANOVA: p=0.573
Cued 2-CST Reversal, Correct Choice: p vs Vehicle-treated R6/2 mice (R6/2 mice; Test Day 4, 10 mg/kg p.o.): ANOVA: p=0.206
Cued 2-CST Reversal, Correct Choice: p vs Vehicle-treated R6/2 mice (R6/2 mice; Test Day 4, 30 mg/kg p.o.): ANOVA: p=0.206
Cued 2-CST Reversal, Correct Choice: p vs Vehicle-treated R6/2 mice (R6/2 mice; Test Day 5, 10 mg/kg p.o.): ANOVA: p=0.057
Cued 2-CST Reversal, Correct Choice: p vs Vehicle-treated R6/2 mice (R6/2 mice; Test Day 5, 30 mg/kg p.o.): ANOVA: p=0.057
Cued 2-CST Reversal, Correct Choice: p vs Vehicle-treated R6/2 mice (R6/2 mice; Test Day 6, 10 mg/kg p.o.): ANOVA: p=0.140
Cued 2-CST Reversal, Correct Choice: p vs Vehicle-treated R6/2 mice (R6/2 mice; Test Day 6, 30 mg/kg p.o.): ANOVA: p=0.140
Cued 2-CST Acquisition, % of Mice Reaching Criterion: p vs Vehicle-treated R6/2 mice (R6/2 mice; Test Day 2, 10 mg/kg p.o.): p>0.999
Cued 2-CST Acquisition, % of Mice Reaching Criterion: p vs Vehicle-treated R6/2 mice (R6/2 mice; Test Day 2, 30 mg/kg p.o.): p=0.487
Cued 2-CST Acquisition, % of Mice Reaching Criterion: p vs Vehicle-treated R6/2 mice (R6/2 mice; Test Day 3, 10 mg/kg p.o.): p>0.999
Cued 2-CST Acquisition, % of Mice Reaching Criterion: p vs Vehicle-treated R6/2 mice (R6/2 mice; Test Day 3, 30 mg/kg p.o.): p>0.999
Cued 2-CST Acquisition, % of Mice Reaching Criterion: p vs Vehicle-treated R6/2 mice (R6/2 mice; Test Day 4, 10 mg/kg p.o.): p>0.999
Cued 2-CST Acquisition, % of Mice Reaching Criterion: p vs Vehicle-treated R6/2 mice (R6/2 mice; Test Day 4, 30 mg/kg p.o.): p>0.999
Cued 2-CST Acquisition, % of Mice Reaching Criterion: p vs Vehicle-treated R6/2 mice (R6/2 mice; Test Day 5, 10 mg/kg p.o.): p>0.999
Cued 2-CST Acquisition, % of Mice Reaching Criterion: p vs Vehicle-treated R6/2 mice (R6/2 mice; Test Day 5, 30 mg/kg p.o.): p>0.999
Cued 2-CST Acquisition, % of Mice Reaching Criterion: p vs Vehicle-treated R6/2 mice (R6/2 mice; Test Day 6, 10 mg/kg p.o.): p=0.313
Cued 2-CST Acquisition, % of Mice Reaching Criterion: p vs Vehicle-treated R6/2 mice (R6/2 mice; Test Day 6, 30 mg/kg p.o.): p>0.999
Cued 2-CST Acquisition, % of Mice Reaching Criterion: p vs Vehicle-treated R6/2 mice (R6/2 mice; Test Day 7, 10 mg/kg p.o.): p=0.508
Cued 2-CST Acquisition, % of Mice Reaching Criterion: p vs Vehicle-treated R6/2 mice (R6/2 mice; Test Day 7, 30 mg/kg p.o.): p=0.752
Cued 2-CST Acquisition, % of Mice Reaching Criterion: p vs Vehicle-treated R6/2 mice (R6/2 mice; Test Day 8, 10 mg/kg p.o.): p=0.313
Cued 2-CST Acquisition, % of Mice Reaching Criterion: p vs Vehicle-treated R6/2 mice (R6/2 mice; Test Day 8, 30 mg/kg p.o.): p=0.751
Cued 2-CST Acquisition, % of Mice Reaching Criterion: p vs Vehicle-treated R6/2 mice (R6/2 mice; Test Day 9, 10 mg/kg p.o.): p>0.999
Cued 2-CST Acquisition, % of Mice Reaching Criterion: p vs Vehicle-treated R6/2 mice (R6/2 mice; Test Day 9, 30 mg/kg p.o.): p>0.999
Cued 2-CST Acquisition, % of Mice Reaching Criterion: p vs Vehicle-treated R6/2 mice (R6/2 mice; Test Day 10, 10 mg/kg p.o.): p>0.999
Cued 2-CST Acquisition, % of Mice Reaching Criterion: p vs Vehicle-treated R6/2 mice (R6/2 mice; Test Day 10, 30 mg/kg p.o.): p>0.999
Cued 2-CST Acquisition, % of Mice Reaching Criterion: p vs Vehicle-treated R6/2 mice (R6/2 mice; Test Day 11, 10 mg/kg p.o.): p>0.999
Cued 2-CST Acquisition, % of Mice Reaching Criterion: p vs Vehicle-treated R6/2 mice (R6/2 mice; Test Day 11, 30 mg/kg p.o.): p=0.716
Cued 2-CST Acquisition, % of Mice Reaching Criterion: p vs Vehicle-treated R6/2 mice (R6/2 mice; Test Day 12, 10 mg/kg p.o.): p>0.999
Cued 2-CST Acquisition, % of Mice Reaching Criterion: p vs Vehicle-treated R6/2 mice (R6/2 mice; Test Day 12, 30 mg/kg p.o.): p>0.999
IC50 (PDE5): 60 nM
